Test system: ^64CuCl2 (^64Cu) intestinal absorption and hepatic copper uptake
Assay: Example 2: Copper Absorption study, oral 64Cu PET-CT in healthy subjects
Assay type: in vivo, human
Settings: healthy subjects; for mean SUV liver / hepatic uptake of labeled copper, comparison between treatments: 1 hour and 15 hours after oral 64Cu; for reduction of mean hepatic copper uptake: 1 hr scan post treatment, oral 64Cu, 7 days treatment
Protocol: Blood was collected at several time points to assess plasma copper kinetics. The study was carried out as a randomized, placebo-controlled intervention study. […] The study assessed the previously listed organs and the effect of anti-copper treatment by comparing the mean standard uptake value (SUV) in the organs of interest. […] The dynamic baseline scans and the subsequent static scans were compared across all treatments.

`CC(C)(S)[C@@H](N)C(=O)O` [penicillamine, (2S)-2-amino-3-methyl-3-sulfanylbutanoic acid, reference compound] was tested, and the “mean SUV liver / hepatic uptake of labeled copper, comparison between treatments” value was “not different from placebo” and the “reduction of mean hepatic copper uptake” value was “approximately 25%”.

In the case of `NCCNCCNCCN` [trientine, N′-[2-(2-aminoethylamino)ethyl]ethane-1,2-diamine, reference compound], the “mean SUV liver / hepatic uptake of labeled copper, comparison between treatments” value is reported as “significantly lower than with penicillamine” and the “reduction of mean hepatic copper uptake” value is reported as ~50%.

From patent US20250082674A1, “METHODS OF TREATING COPPER METABOLISM-ASSOCIATED DISEASES OR DISORDERS” (priority 2021, published 2025)
